In PubChem BioAssay AID330 (DTP/NCI, 2004):
Values joined by “and” are separate entries in the source; they are usually repeats but may differ in a detail not shown here. Equal values may be shown once. Inconclusive results and toxic doses are left out.

System: P388 leukemia ip, CD2F1 mice, survival T/C
Experiment: NCI In Vivo Anticancer Drug Screen. Data for tumor model P388 Leukemia (intraperitoneal) in CD2F1 (CDF1) mice
Conditions: endpoint: median survival time, higher = longer survival
Procedure, shortened: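 Mice carrying the transplanted tumor received test compound or vehicle. Survival was recorded in each group, and the value is the treated-group measurement divided by that of the vehicle-treated control group.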

[1] = dose: 25.0 mg/kg/injection, schedule: Q01DX005 (ip), vehicle: Klucel (hydroxypropylcellulose) (HPC)
[2] = dose: 50.0 mg/kg/injection, schedule: Q01DX005 (ip), vehicle: Klucel (hydroxypropylcellulose) (HPC)
[3] = dose: 100.0 mg/kg/injection, schedule: Q01DX005 (ip), vehicle: Klucel (hydroxypropylcellulose) (HPC)
[4] = dose: 200.0 mg/kg/injection, schedule: Q01DX005 (ip), vehicle: Klucel (hydroxypropylcellulose) (HPC)
[5] = dose: 50.0 mg/kg/injection, schedule: Q01DX005 (ip), vehicle: saline
[6] = dose: 100.0 mg/kg/injection, schedule: Q01DX005 (ip), vehicle: saline
[7] = dose: 200.0 mg/kg/injection, schedule: Q01DX005 (ip), vehicle: saline
[8] = dose: 100.0 mg/kg/injection, schedule: Q04DX002 (ip), vehicle: saline with Tween-80
[9] = dose: 200.0 mg/kg/injection, schedule: Q04DX002 (ip), vehicle: saline with Tween-80
[10] = dose: 400.0 mg/kg/injection, schedule: Q04DX002 (ip), vehicle: saline with Tween-80
[11] = dose: 60.0 mg/kg/injection, schedule: Q01DX005 (ip), vehicle: saline with Tween-80
[12] = dose: 120.0 mg/kg/injection, schedule: Q01DX005 (ip), vehicle: saline with Tween-80
[13] = dose: 25.0 mg/kg/injection, schedule: Q01DX009 (ip), vehicle: saline with Tween-80
[14] = dose: 50.0 mg/kg/injection, schedule: Q01DX009 (ip), vehicle: saline with Tween-80
[15] = dose: 12.5 mg/kg/injection, schedule: Q01DX009 (ip), vehicle: other
[16] = dose: 25.0 mg/kg/injection, schedule: Q01DX009 (ip), vehicle: other
[17] = dose: 50.0 mg/kg/injection, schedule: Q01DX009 (ip), vehicle: other
[18] = dose: 100.0 mg/kg/injection, schedule: Q01DX009 (ip), vehicle: saline with Tween-80
[19] = dose: 200.0 mg/kg/injection, schedule: Q01DX009 (ip), vehicle: saline with Tween-80
[20] = dose: 25.0 mg/kg/injection, schedule: Q01DX009 (ip), vehicle: saline
[21] = dose: 50.0 mg/kg/injection, schedule: Q01DX009 (ip), vehicle: saline
[22] = dose: 100.0 mg/kg/injection, schedule: Q01DX009 (ip), vehicle: saline
[23] = dose: 50.0 mg/kg/injection, schedule: Q01DX005 (ip), vehicle: saline with Tween-80
[24] = dose: 100.0 mg/kg/injection, schedule: Q01DX005 (ip), vehicle: saline with Tween-80
[25] = dose: 240.0 mg/kg/injection, schedule: Q01DX005 (ip), vehicle: saline with Tween-80

For `Cc1cc(N/N=C/c2ccc([N+](=O)[O-])cc2)c2cc3c(cc2n1)OCO3`, the T/C (dose: 12.5 mg/kg/injection, schedule: Q01DX005 (ip), vehicle: Klucel (hydroxypropylcellulose) (HPC)) was 100 % of control, the T/C [1] was 102 % of control and the T/C [2] was 101 % of control and 104 % of control.
For `O=C(N/N=C/c1cc(Br)cc(Br)c1[O-])c1ccccc1.O=C(N/N=C/c1cc(Br)cc(Br)c1[O-])c1ccccc1.[Co+2]`, the T/C (dose: 100.0 mg/kg/injection, schedule: Q01DX001 (ip), vehicle: saline with Tween-80) was 86 % of control.
With `CC(=O)Oc1cc(C)c2c(c1C)C1OC(=O)C(C)C1CC2` (configuration not stated) the T/C [2] was 100 % of control, the T/C [3] was 103 % of control and the T/C [4] was 98 % of control.
In the case of `CC(NC(=O)CNC(=O)CN)C(=O)O` (configuration not stated), the T/C (dose: 25.0 mg/kg/injection, schedule: Q01DX005 (ip), vehicle: saline) is reported as 102 % of control, the T/C [5] is reported as 92 % of control and the T/C [6] is reported as 94 % of control. For the same compound, the T/C [7] was 94 % of control.
For `COc1cc2c(cc1OC)C(c1ccccc1[N+](=O)[O-])=NCC2`, the T/C [2] was 99 % of control, the T/C [3] was 94 % of control and the T/C [4] was 92 % of control.
For `NC(=S)c1cccc(C2Nc3ccccc3S2)c1` (configuration not stated), the T/C [8] was 94 % of control, the T/C [9] was 95 % of control and the T/C [10] was 96 % of control.
`CC1OS(=O)(=O)CS(=O)(=O)OC1C` (configuration not stated) was tested, and the T/C [11] was 101 % of control and the T/C [12] was 101 % of control.
In the case of `CCCCC(=O)NN`, the T/C (dose: 12.5 mg/kg/injection, schedule: Q01DX009 (ip), vehicle: saline with Tween-80) is reported as 96 % of control, the T/C [13] is reported as 102 % of control and the T/C [14] is reported as 102 % of control.
With `CCC(C)N(C(=O)c1ccccc1)c1ccccc1` (configuration not stated) the T/C [15] was 99 % of control and 106 % of control, the T/C (dose: 12.5 mg/kg/injection, schedule: Q01DX009 (ip), vehicle: saline + Tween-80 + alcohol) was 101 % of control and the T/C [16] was 100 % of control and 102 % of control. For the same compound, the T/C (dose: 25.0 mg/kg/injection, schedule: Q01DX009 (ip), vehicle: saline + Tween-80 + alcohol) was 104 % of control, the T/C [17] was 102 % of control and the T/C (dose: 50.0 mg/kg/injection, schedule: Q01DX009 (ip), vehicle: saline + Tween-80 + alcohol) was 106 % of control.
In the case of `S=C(Nc1ccc(Br)cc1)SCc1ccc(Cl)c(Cl)c1`, the T/C (dose: 50.0 mg/kg/injection, schedule: Q01DX009 (ip), vehicle: suspension in saline) is reported as 105 % of control, the T/C (dose: 100.0 mg/kg/injection, schedule: Q01DX009 (ip), vehicle: suspension in saline) is reported as 111 % of control and the T/C (dose: 200.0 mg/kg/injection, schedule: Q01DX009 (ip), vehicle: suspension in saline) is reported as 110 % of control.
In the case of `CC(C)(Oc1ccc(C(=O)c2ccc(Cl)cc2)cc1)C(=O)O`, the T/C [14] is reported as 93 % of control, the T/C [18] is reported as 102 % of control and the T/C [19] is reported as 111 % of control.
For `CN(C)CCOC1OCN(C)CC1(C)C` (configuration not stated), the T/C [14] was 104 % of control, the T/C [18] was 111 % of control and the T/C [19] was 110 % of control.
`c1ccc2c3c([nH]c2c1)CCc1cncnc1-3` was tested, and the T/C [2] was 91 % of control and 97 % of control, the T/C [3] was 90 % of control and 103 % of control and the T/C [4] was 99 % of control and 115 % of control.
In the case of `NC(=O)C1CCC(c2ccccc2)(c2ccccc2)C1=O` (configuration not stated), the T/C [8] is reported as 99 % of control, the T/C [9] is reported as 105 % of control and the T/C [10] is reported as 101 % of control.
With `CCN(CC)C(=O)C1CCN(Cc2c[nH]c3ccccc23)CC1` the T/C [20] was 99 % of control, the T/C [21] was 104 % of control and the T/C [22] was 107 % of control.
In the case of `CC(C1SC(=S)NC1=O)C1SC(=S)NC1=O` (configuration not stated), the T/C [23] is reported as 86 % of control, the T/C [24] is reported as 87 % of control and the T/C (dose: 200.0 mg/kg/injection, schedule: Q01DX005 (ip), vehicle: saline with Tween-80) is reported as 87 % of control.
In the case of `COc1ccc(Cc2cc3c(cc2OCC(=O)Nc2nccs2)OCO3)cc1`, the T/C [2] is reported as 88 % of control, the T/C [3] is reported as 97 % of control and the T/C [4] is reported as 97 % of control.
With `c1ccc(P(CCNCCP(c2ccccc2)c2ccccc2)c2ccccc2)cc1` the T/C [23] was 105 % of control and the T/C [24] was 109 % of control.
`COc1nc(SC)c(C#N)c(=O)[nH]1` was tested, and the T/C [21] was 107 % of control, the T/C [22] was 98 % of control and the T/C (dose: 200.0 mg/kg/injection, schedule: Q01DX009 (ip), vehicle: saline) was 107 % of control.
For `CC(C)(C)[Si](C)(C)OCc1ccccc1N1C(=O)C(NC(=O)Cc2ccccc2)C1/C=C/c1ccccc1` (configuration not stated), the T/C [14] was 99 % of control, the T/C [18] was 94 % of control and the T/C [19] was 92 % of control.
For `O=C(/C=C/c1ccccc1)NC1C=Nc2ccccc2NC1=O` (configuration not stated), the T/C [11] was 92 % of control, the T/C [12] was 92 % of control and the T/C [25] was 99 % of control.
For `CC1OC2=C(C(=O)c3ccccc3C2=O)C(O)C1O` (configuration not stated), the T/C (dose: 25.0 mg/kg/injection, schedule: Q01DX001 (ip), vehicle: Klucel (hydroxypropylcellulose) (HPC)) was 96 % of control and the T/C (dose: 50.0 mg/kg/injection, schedule: Q01DX001 (ip), vehicle: Klucel (hydroxypropylcellulose) (HPC)) was 96 % of control.
`O=[N+]([O-])c1c[nH]n2c([N+](=O)[O-])cnc12` was tested, and the T/C (dose: 6.25 mg/kg/injection, schedule: Q01DX009 (ip), vehicle: other) was 91 % of control and the T/C [15] was 101 % of control.
For `CN(C)C(=S)/N=C1\SCS(=O)(=O)N1C`, the T/C [13] was 91 % of control, the T/C [14] was 110 % of control and the T/C [18] was 100 % of control.
For `O=[N+]([O-])C(Br)(Br)S(=O)(=O)c1ccccc1`, the T/C [23] was 97 % of control and the T/C [24] was 106 % of control.
For `CC1CCCN(CCSSCCN2CCCC(C)C2)C1` (configuration not stated), the T/C (dose: 12.5 mg/kg/injection, schedule: Q01DX009 (ip), vehicle: saline) was 109 % of control, the T/C [20] was 113 % of control and the T/C [21] was 113 % of control.
In the case of `CCCC1(CCC)c2ccccc2C(Cl)(CCl)c2ccccc21`, the T/C [15] is reported as 103 % of control, the T/C [16] is reported as 106 % of control and the T/C [17] is reported as 109 % of control. The T/C (dose: 100.0 mg/kg/injection, schedule: Q01DX009 (ip), vehicle: other) was 107 % of control and the T/C (dose: 200.0 mg/kg/injection, schedule: Q01DX009 (ip), vehicle: other) was 109 % of control.
With `[Se]=[Mo]=[Se]` the T/C [11] was 96 % of control, the T/C [12] was 95 % of control and the T/C [25] was 97 % of control.
For `COc1ccc(C2COc3cc(O)c(O)cc3C2)cc1OC` (configuration not stated), the T/C [11] was 101 % of control, the T/C [12] was 97 % of control and the T/C [25] was 101 % of control.
With `CC1(C)OCC(C2OC3OC(C)(C)OC3C2=C(Br)Br)O1` (configuration not stated) the T/C [11] was 91 % of control, the T/C [12] was 100 % of control and the T/C [25] was 89 % of control.
For `C/C(=N\N=C(/[Se])N1CCC1)c1ccccn1`, the T/C (dose: 12.5 mg/kg/injection, schedule: Q04DX003 (ip), vehicle: Klucel (hydroxypropylcellulose) (HPC)) was 106 % of control and the T/C (dose: 25.0 mg/kg/injection, schedule: Q04DX003 (ip), vehicle: Klucel (hydroxypropylcellulose) (HPC)) was 104 % of control.
In the case of `OCC1=CCN2CC[C@@H](O)[C@@H]12`, the T/C [5] is reported as 93 % of control, the T/C [6] is reported as 107 % of control and the T/C [7] is reported as 93 % of control.
In the case of `OCCN(CCCN(CCO)C(=S)S)C(=S)S.[Cu+2]`, the T/C (dose: 12.5 mg/kg/injection, schedule: Q01DX005 (ip), vehicle: saline + Tween-80 + alcohol) is reported as 98 % of control, the T/C (dose: 25.0 mg/kg/injection, schedule: Q01DX005 (ip), vehicle: saline + Tween-80 + alcohol) is reported as 99 % of control and the T/C (dose: 50.0 mg/kg/injection, schedule: Q01DX005 (ip), vehicle: saline + Tween-80 + alcohol) is reported as 102 % of control and 104 % of control.
In the case of `COC(c1cc(C(O)(C(F)(F)F)C(F)(F)F)cc(C(OC)(C(F)(F)F)C(F)(F)F)c1)(C(F)(F)F)C(F)(F)F`, the T/C (dose: 100.0 mg/kg/injection, schedule: Q04DX003 (ip), vehicle: Klucel (hydroxypropylcellulose) (HPC)) is reported as 100 % of control, the T/C (dose: 200.0 mg/kg/injection, schedule: Q04DX003 (ip), vehicle: Klucel (hydroxypropylcellulose) (HPC)) is reported as 100 % of control and the T/C (dose: 400.0 mg/kg/injection, schedule: Q04DX003 (ip), vehicle: Klucel (hydroxypropylcellulose) (HPC)) is reported as 92 % of control.
In the case of `N#CNC(=NC12CC3CC(CC(C3)C1)C2)Nc1ccncc1`, the T/C [8] is reported as 100 % of control and the T/C [10] is reported as 109 % of control.
For `CC(C)(C)N1N=C2CCCC2[Si]1(C)C` (configuration not stated), the T/C [1] was 105 % of control, the T/C [2] was 102 % of control and the T/C [3] was 102 % of control.
With `O=c1cccccc1Cl` the T/C [14] was 104 % of control and the T/C [18] was 101 % of control.
